Assay results taken from PubChem BioAssay (NCI).
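The compound was tested at five concentrations on cells cultured in 96-well plates, with a 48-hour exposure period. GI50 is the concentration that inhibits growth by half. TGI: concentration producing complete growth inhibition.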

Columns and labels:
Test in all cases: inhibition of tumour cell growth, NCI panel, 48 h
EKVX NSCLC = system: EKVX NSCLC
U251 CNS = system: U251 CNS
NCI-H226 lung = system: NCI-H226 lung
KM20L2 colon = system: KM20L2 colon
OVCAR-4 ovarian = system: OVCAR-4 ovarian
OVCAR-3 ovarian = system: OVCAR-3 ovarian
SF-268 CNS = system: SF-268 CNS
SNB-19 CNS = system: SNB-19 CNS
HCT-15 colon = system: HCT-15 colon
MDA-MB-231 breast = system: MDA-MB-231 breast

| SMILES | TGI (EKVX NSCLC) [µM] | TGI (U251 CNS) [µM] | TGI (NCI-H226 lung) [µM] | TGI (KM20L2 colon) [µM] | TGI (OVCAR-4 ovarian) [µM] | TGI (OVCAR-3 ovarian) [µM] | TGI (SF-268 CNS) [µM] | TGI (SNB-19 CNS) [µM] | TGI (HCT-15 colon) [µM] | TGI (MDA-MB-231 breast) [µM] | GI50 (U251 CNS) [µM] | GI50 (NCI-H226 lung) [µM] | GI50 (OVCAR-4 ovarian) [µM] | GI50 (SF-268 CNS) [µM] | GI50 (HCT-15 colon) [µM] | GI50 (EKVX NSCLC) [µM] |
| --- | --- | --- | --- | --- | --- | --- | --- | --- | --- | --- | --- | --- | --- | --- | --- | --- |
| O=C1NC(Cc2ccccc2)C(=O)N2CCCC12 (stereo unspecified) | > 100 | > 100 | > 100 | > 100 | > 100 | > 100 | > 100 | > 100 | > 100 | – | – | – | – | – | – | – |
| COc1cc(CC2C(=O)OCC2[C@@H](OC(C)=O)c2ccc3c(c2)OCO3)c(Br)c(OC)c1OC (stereo partly specified) | > 100 | – | – | > 100 | > 100 | > 100 | > 100 | > 100 | > 100 | – | – | – | – | – | – | – |
| O=C1C(=Cc2ccc([N+](=O)[O-])o2)C(=O)N(CCc2ccccc2)S(=O)(=O)N1CCc1ccccc1 | > 100 | > 100 | 41.4 | > 100 | 30 | 31.4 | 57.8 | > 100 | 30.2 | – | – | – | – | – | – | – |
| Cc1cc(=O)[nH]c(NNC(C#N)c2ccc(N(C)C)cc2)n1 (stereo unspecified) | – | > 100 | > 100 | > 100 | > 100 | > 100 | > 100 | – | > 100 | – | – | – | – | – | – | – |
| NNC(=S)NN/C=C(\C=Nc1ccccc1)[N+](=O)[O-] | > 100 | – | > 100 | > 100 | > 100 | > 100 | > 100 | > 100 | – | – | – | – | – | – | – | – |
| COCC1N=C(c2cc(OC)c(OC)c(OC)c2-c2cc3c(cc2[C@@H](C)O)OCO3)O[C@H]1c1ccccc1 (stereo partly specified) | > 95.5 | > 100 | > 100 | > 100 | > 100 | > 100 | > 100 | > 100 | > 100 | – | – | – | – | – | – | – |
| O=C1NC2OC(CO)C(O)C(O)C2O1 (stereo unspecified) | > 100 | > 100 | – | > 100 | > 100 | > 100 | > 100 | > 100 | > 100 | – | – | – | – | – | – | – |
| CN(C)C1(c2cc3ccccc3s2)CCCCC1 | > 100 | > 100 | > 100 | – | > 100 | > 100 | 52 | > 100 | > 100 | > 100 | – | – | – | – | – | – |
| C=CC(=C)CCC(Br)C(C)(C)Cl (stereo unspecified) | > 100 | > 100 | > 100 | – | > 100 | > 100 | > 100 | > 100 | > 100 | > 100 | – | – | – | – | – | – |
| O=C1C(c2c(O)[nH]c3ccc(I)cc23)=Nc2ccccc21 | > 49.4 | 7.36 | 6.94 | – | > 44.7 | 29.2 | 17.2 | 42.8 | > 100 | 8.47 | – | – | – | – | – | – |
| COc1cc(/C=C/c2ccc(S(N)(=O)=O)cc2)cc(OC)c1 | 86 | > 100 | 38.1 | – | 50.9 | 33.2 | > 100 | > 100 | 53.5 | 46.6 | 17.1 | 12.3 | 21.2 | 28.3 | 17.4 | – |
| Cc1cc(N)c2cc(NC(=O)Nc3ccc4nc(C)cc(N)c4c3)ccc2n1 | > 100 | > 100 | > 100 | – | > 100 | > 100 | > 100 | > 100 | > 100 | > 100 | – | – | – | – | – | – |
| COc1ccc(OC)c(-c2cc(=O)c3cc4c(cc3[nH]2)OCO4)c1 | > 100 | > 77.9 | 55.6 | 23.7 | > 100 | > 55.2 | > 100 | > 100 | > 55.5 | – | – | – | – | – | – | – |
| N#Cc1c(O)c(C=O)c(=O)n2c1[nH]c1ccccc12 | > 100 | > 100 | > 100 | – | > 100 | > 100 | > 100 | > 100 | > 100 | > 100 | – | – | – | – | – | – |
| O=C1C(Cl)C(c2ccc([N+](=O)[O-])cc2)N1n1cnc2ccccc2c1=O (stereo unspecified) | 85.6 | > 100 | > 100 | > 100 | 25.2 | > 100 | 97.3 | > 100 | > 100 | – | – | – | – | – | – | – |
| O=C1CCc2ccccc2O1 | > 100 | > 100 | > 100 | – | > 100 | > 100 | > 100 | > 100 | > 100 | > 100 | – | – | – | – | – | – |
| COc1ccc(C2NC3=C(CCCC3)N2)cc1 | – | > 100 | > 100 | 80.8 | > 100 | > 100 | > 100 | – | > 100 | – | – | – | – | – | – | – |
| CC1=C(C(=O)NCCCN(CCO)CCO)CC(C(=O)NCCCN(CCO)CCO)=C(C)N1 | > 100 | > 100 | > 100 | – | > 100 | > 100 | > 100 | > 100 | > 100 | > 100 | – | – | – | – | – | – |
| CCOC(=O)C(NC(=O)c1ccccc1)(Nc1ccc(S(=O)(=O)Nc2ccc(OC)nn2)cc1)C(F)(F)F (stereo unspecified) | > 100 | > 100 | > 100 | – | > 100 | > 100 | > 100 | > 100 | > 100 | > 100 | – | – | – | – | – | – |
| Nc1nc(N)c2nc(CNc3ccc(C(=O)NC(CCNC(=O)c4ccccc4C(=O)O)C(=O)O)cc3)cnc2n1 (stereo unspecified) | > 100 | > 100 | > 100 | – | > 100 | > 100 | > 100 | > 100 | > 100 | > 100 | – | – | – | 0.169 | 0.0072 | 0.0214 |
| CC1(C)OC2[C@@H](CO[C@@]3([C@H]4OC(C)(C)O[C@@H]4CO)OC(C)(C)O[C@@H]23)O1 (stereo partly specified) | > 100 | > 100 | > 100 | – | > 100 | > 100 | > 100 | > 100 | > 100 | > 100 | – | – | – | – | – | – |
| Cc1nc(-n2nc(-c3ccccc3)cc2-c2ccccc2)sc1C(/C=C/c1ccc([N+](=O)[O-])cc1)=N/NC(N)=S | > 100 | > 100 | > 100 | > 100 | – | > 100 | > 100 | > 100 | > 100 | – | – | – | – | – | – | – |
